{"source": "patent US20130210765A1", "about": "“HYALURONIC ACID CONTAINING PHARMACEUTICAL OR VETERINARY COMPOSITIONS” (priority 2004, published 2013)", "test_system": "lameness in horses", "assay": "double-blind placebo controlled crossover clinical trial on lameness in horses", "type": "in vivo", "protocol": "A crossover double blind and randomised study was designed to evaluate the efficacy of GLM lipid extract and HA alone and in combination in the treatment of lameness in horses.\nQualifying horses were initially examined and randomly assigned to receive four capsules of the placebo, or containing 50 mg GLM, or 50 mg Hyaluronate, or a mixture of 50 mg GLM and 50 mg Hyaluronate daily. Randomisation was computer generated in balanced blocks of the four treatment regimes and was crossover in design. No other medications were administered.\nEvaluations of arthritic/musculoskeletal signs were carried out by a veterinarian and research assistant at wk 0 and every two weeks thereafter until the end of the trial. All parameters were scored on a scale of 1 to 10 according to severity and symptom improvement where 1 was severe disease symptomology and 10 indicated a disease free condition score and the results are shown in Table 1 and FIG. 4.\nEach horse was scored for mobility (average of individual scores for lameness in walking, trotting, turning and any other musculoskeletal abnormality). Individual joints (neck, back, carpus, elbow and shoulder or tarsus, stifle and hip) of each limb were individually scored for degree of pain, swelling, crepitus and reduction in range of movement. Horses were also filmed for gait analysis and scored. Summation of the mobility score and all individual joint scores for each horse comprised their total arthritic/musculoskeletal score."}
{"substance": "Hyaluronic acid [Hyaluronate]", "values": [{"measurement": "mean clinical lameness score, Mid Phase 14 Days", "setting": "four capsules daily, 14 days, scale 1 (severe) to 10 (disease free), Mean ± SEM", "value": "2.6 ± 0.47^be"}, {"measurement": "mean clinical lameness score, End Phase 28 Days", "setting": "four capsules daily, 28 days, scale 1 (severe) to 10 (disease free), Mean ± SEM", "value": "2.8 ± 0.48^ef"}, {"measurement": "effect on degree of lameness / locomotory score (in words)", "setting": "within 2 weeks / 14 days of treatment", "value": "little influence on it own"}]}
